Results: ChEMBL document CHEMBL1127997, “Synthesis of new thiazinoindole derivatives and their evaluation as inhibitors of human leukocyte elastase and other related serine proteases” (Bioorg Med Chem Lett, 1994)
pKi: −log10 of the molar value. Blank lines part the entries; values can stand above or below the compound they belong to.

Columns and labels:
[1] = target: T1, Neutrophil elastase (Homo sapiens, UniProt P08246); experiment: Compound was tested for inhibition of human leukocyte Elastase at 23 uM concentration from human polymorphonuclear leukocytes
T1 sequence (P08246 whole entry): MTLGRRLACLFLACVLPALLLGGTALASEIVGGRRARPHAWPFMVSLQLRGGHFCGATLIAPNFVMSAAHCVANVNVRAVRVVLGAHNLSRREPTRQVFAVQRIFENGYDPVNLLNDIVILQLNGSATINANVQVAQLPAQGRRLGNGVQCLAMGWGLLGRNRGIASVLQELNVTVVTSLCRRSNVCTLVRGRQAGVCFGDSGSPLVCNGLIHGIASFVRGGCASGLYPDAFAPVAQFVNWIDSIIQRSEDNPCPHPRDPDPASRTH

[2] = target: T2, Cathepsin G (Homo sapiens) (UniProt P08311); experiment: Compound was tested for inhibitory activity against human Cathepsin G; settings: concentration not given here
T2 sequence (whole entry): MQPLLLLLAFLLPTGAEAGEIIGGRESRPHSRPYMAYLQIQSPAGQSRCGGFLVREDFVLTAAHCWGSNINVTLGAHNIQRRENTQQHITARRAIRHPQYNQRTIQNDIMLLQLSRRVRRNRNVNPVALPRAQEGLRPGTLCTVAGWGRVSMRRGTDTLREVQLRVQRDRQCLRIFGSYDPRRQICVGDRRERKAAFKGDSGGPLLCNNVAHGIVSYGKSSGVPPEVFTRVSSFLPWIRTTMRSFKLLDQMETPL

[3] = target: Chymotrypsinogen A (Bos taurus) (UniProt P00766); experiment: Compound was tested for inhibitory activity against […] alpha-chymotrypsin; settings: concentration not given here
[4] = target: T1, Neutrophil elastase; experiment: Compound was tested for inhibition of human leukocyte Elastase at 13 uM concentration from human polymorphonuclear leukocytes
[5] = target: T1, Neutrophil elastase; experiment: Compound was tested for inhibition of human leukocyte Elastase at 15 uM concentration from human polymorphonuclear leukocytes
[6] = target: T1, Neutrophil elastase; experiment: Compound was tested for inhibition of human leukocyte Elastase from human polymorphonuclear leukocytes; not inhibitory at the limit of solubility
[7] = target: T1, Neutrophil elastase; experiment: Compound was tested for inhibition of human leukocyte Elastase at 16 uM concentration from human polymorphonuclear leukocytes
[8] = target: T1, Neutrophil elastase; experiment: Compound was tested for inhibition of human leukocyte Elastase at 64 uM concentration from human polymorphonuclear leukocytes
[9] = target: T1, Neutrophil elastase; experiment: Compound was tested for inhibition of human leukocyte Elastase at 51 uM concentration from human polymorphonuclear leukocytes
[10] = target: T1, Neutrophil elastase; experiment: Compound was tested for inhibition of human leukocyte Elastase at 32 uM concentration from human polymorphonuclear leukocytes

Structure (SMILES): Oc1sc(Nc2ccc(Cl)cc2)nc2c3ccccc3nc1-2
pKi [1]: 4.54

Structure (SMILES): Oc1sc(Nc2cccc(C(F)(F)F)c2)nc2c3ccccc3nc1-2
inhibition [2]: 5.3%
inhibition [3]: 34.2%
pKi [4]: ≤ 4.52

Structure (SMILES): CCCNc1nc2c3ccccc3nc-2c(O)s1
Ki [6]: No inhibition

Structure (SMILES): Oc1sc(Nc2ccccc2)nc2c3ccccc3nc1-2
inhibition [2]: 11.1%
pKi [8]: 4.37
inhibition [3]: 13.3%

Structure (SMILES): Oc1sc(Nc2cccc(F)c2)nc2c3ccccc3nc1-2
pKi [7]: ≤ 4.14

Structure (SMILES): Oc1sc(Nc2ccccc2F)nc2c3ccccc3nc1-2
pKi [10]: ≤ 4.06

Structure (SMILES): CCNc1nc2c3ccccc3nc-2c(O)s1
Ki [6]: No inhibition

Structure (SMILES): CNc1nc2c3ccccc3nc-2c(O)s1
Ki [6]: No inhibition

Second part, the compound after the results:

pKi [5]: ≤ 4.35
Structure (SMILES): O=[N+]([O-])c1ccc(Nc2nc3c4ccccc4nc-3c(O)s2)cc1

pKi [7]: ≤ 4.11
Structure (SMILES): Cc1ccc(Nc2nc3c4ccccc4nc-3c(O)s2)cc1

pKi [9]: ≤ 3.98
Structure (SMILES): Oc1sc(Nc2ccc(F)cc2)nc2c3ccccc3nc1-2

pKi [4]: ≤ 4.52
Structure (SMILES): Oc1sc(Nc2ccc(Br)cc2)nc2c3ccccc3nc1-2
